Measured values reported in patent US5072002A, “Synthesis of cholesterol-lowering agents” (The Governors of the University of Alberta, priority 1989, dated 1991).

Key:
[1] = administered to human beings; cited from earlier work
[2] = target: T1, Rat Liver 3-hydroxy-3-methylglutarylcoenzyme A Reductase (Rattus norvegicus, UniProt P51639); test: Assay of HMGCoA reductase (rat liver microsomes), in vitro; assay type: biochemical; conditions: 20 min, 37° C., DMSO control 652, none 1254
T1 construct: rat liver microsome (75 μg protein); from tissue; host or cells: rat liver microsomes
T1 sequence (P51639 1-887): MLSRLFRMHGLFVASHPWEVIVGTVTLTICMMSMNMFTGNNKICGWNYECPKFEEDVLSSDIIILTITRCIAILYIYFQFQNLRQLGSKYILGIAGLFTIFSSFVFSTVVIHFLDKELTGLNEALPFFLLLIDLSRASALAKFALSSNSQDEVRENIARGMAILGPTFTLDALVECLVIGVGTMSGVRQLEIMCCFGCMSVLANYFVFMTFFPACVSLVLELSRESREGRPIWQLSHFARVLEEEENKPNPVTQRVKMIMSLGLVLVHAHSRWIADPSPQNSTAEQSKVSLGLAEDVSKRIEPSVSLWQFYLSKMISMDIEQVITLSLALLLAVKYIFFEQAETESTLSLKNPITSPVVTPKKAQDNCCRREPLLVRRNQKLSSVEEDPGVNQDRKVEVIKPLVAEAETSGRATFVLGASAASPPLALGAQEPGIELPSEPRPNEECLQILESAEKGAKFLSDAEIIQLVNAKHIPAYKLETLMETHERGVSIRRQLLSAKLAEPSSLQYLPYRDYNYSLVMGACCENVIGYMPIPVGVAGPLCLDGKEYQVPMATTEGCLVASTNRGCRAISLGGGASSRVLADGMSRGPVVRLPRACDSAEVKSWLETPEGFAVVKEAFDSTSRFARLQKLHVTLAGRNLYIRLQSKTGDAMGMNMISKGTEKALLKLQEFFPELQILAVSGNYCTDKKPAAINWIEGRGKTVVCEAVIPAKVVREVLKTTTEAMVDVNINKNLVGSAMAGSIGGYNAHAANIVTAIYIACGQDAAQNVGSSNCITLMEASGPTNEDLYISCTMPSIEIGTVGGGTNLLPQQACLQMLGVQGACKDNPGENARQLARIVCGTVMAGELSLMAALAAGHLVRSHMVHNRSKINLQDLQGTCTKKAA
Protocol: Ethylcompactin and mevinolin were dissolved in DMSO. Aliquots (10 μl) of each were incubated with 50 μl of 50 mM Pot. phosphate pH 7.4, 70 mM KCl, 30 mM EDTA, 10 mM DTT for 30 min at 37° C. to delactonize the compounds. Control incubations were done with 10 μL DMSO.
Assay of HMGCoA reductase was carried out as described by George and Ramasarma, [George R., Ramasarma, T., Biochem. J. (1977) 162:493-499]. At the end of 30 min, incubation for […], rat liver microsome (75 μg protein) were added to each tube along with glucose-6-phosphate (577 μM) glucose-6-phosphate dehydrogenase (0.05 unit/assay) and MADPH ([…]) and incubated for an additional 10 min at 37° C.
HMGCoA reductase reaction was initiated by the additon of 3-^14 C-HMGCoA ([…], final) and carried out for 20 min at 37° C. in a total volume of 100 μl. The reaction was terminated by the addition of 5N HCl (25 μl) containing known amounts of ^3 -H-Mevalonolactone as internal standard and non-radioactive mevalonolactone (0.6 mg/assay) as carrier. Mevalonic acid formed in the assay was allowed to lactonize by incubating the mixture for 30 min at 37° C. The precipitated protein was removed by centrifugation in a microfuge. An aliquot of the supernatant (40 μl) was applied on silica gel G (0.25 mm thickness) plates and the chromatogram developed with Acetone:Benzene (3:2). The spot corresponding to the mevalonolactone (Rf 0.5) was scraped off and the radioactivity estimated by liquid scintillation counting. Mevalonic acid formed was calcualted from the recovery of internal standard. Microsomal protein was estimated by the method of Lowry [J. Biol. Chem. (1951) 193:265-275 ] after precipitation according to Bensadoun and Weinstein [Anal. Biochem. (1976) 70:241-250]. The specific activity of HMGCoA reductase is expressed as p moles of mevalonic acid formed per minute per mg of microsomal protein.

[3] = based on existing biological data; cited from earlier work
[4] = 100 nM in assay (in 10 μl DMSO)

Row | SMILES | concentration in the blood of LDL cholesterol [1] | HMGCoA Reductase Activity ([2]; 1 nM in assay (in 10 μl DMSO)) | HMGCoA Reductase Activity [2, 4] | HMGCoA Reductase Activity ([2]; 1 μM in assay (in 10 μl DMSO)) | HMGCoA Reductase Activity ([2]; 10 μM in assay (in 10 μl DMSO)) | activity in lowering LDL cholesterol levels as compared to Compactin [3]
1 | CC[C@H](C)C(=O)O[C@H]1CCC=C2C=C[C@H](C)[C@H](CC[C@@H]3C[C@@H](O)CC(=O)O3)[C@H]21 [Compactin, (+)-Compactin] | reduced |  |  |  |  | 
2 | CC[C@H]1C=C2C=C[C@H](C)[C@H](CC[C@@H]3C[C@@H](O)CC(=O)O3)[C@H]2[C@@H](OC(=O)[C@@H](C)CC)C1 [Ethyl Compactin, (+)-3-Ethylcompactin] |  | 730 pmol Mevalonate formed/min/mg | 361 pmol Mevalonate formed/min/mg | 182 pmol Mevalonate formed/min/mg | 20 pmol Mevalonate formed/min/mg | 
3 | CC[C@H](C)C(=O)O[C@H]1C[C@@H](C)C=C2C=C[C@H](C)[C@H](CC[C@@H]3C[C@@H](O)CC(=O)O3)[C@H]21 [Mevinolin, (+)-Mevinolin] | reduced | 609 pmol Mevalonate formed/min/mg | 303 pmol Mevalonate formed/min/mg | 113 pmol Mevalonate formed/min/mg | 52 pmol Mevalonate formed/min/mg | several times more active
